The source of these data is patent publication US4377576A, “5-(Heterocyclic amino-propionyl)-5,10-dihydro-11H-dibenzo[b,e][1,4]diazepin-11-ones” (Karl Thomae Gesellschaft mit beschrankter Haftung, priority 1980, dated 1983).

Counter-ions that a name gives are not always drawn.

A short description of one data set: Acute toxicity. The conditions noted are these: in vivo, po; Mouse. The procedure: The acute toxicity was determined in male CrL-COBS-CD-I(ICR) mice of an average body weight of 22 to 24 gm which had been fasted for 24 hours. Different doses of each compound were administered to groups of 5 to 10 animals by means of an esophageal tube, and the LD50 -values were calculated by the method of D. J. Finney (supra).

Data set [1] in a line: Mydriasis: effect on the size of the pupil. Set-up: species or system male Crl:COBS-CD(SD)BR rats. The conditions noted are these: in vivo, po; Rat, percent of maximum pupil diameter obtained by atropine, 30-120 min. As to the method:
The effect on the size of the pupil was tested in male Crl:COBS-CD(SD)BR rats having a body weight of 100 to 130 gm by using a […]-binocular microscope with a graduated lens and a 10-fold magnification. The compounds were suspended in a 0.2% methyl cellulose solution and administered using an esophageal tube; groups of 5 animals were used per dose. The control animals received the same volume (1 ml/100 gm of body weight) of the vehicle. The diameter of the pupil was measured before administering the test compound, and 30, 60, 90 and 120 minutes after the treatment. The activity was expressed in percent with regard to the maximum diameter obtained by means of atropine. The ED50 was determined by linear regression analysis of the probits according to the method described by D. J. Finney (supra).

The test system of data set [2] is gastric secretion (free and total hydrochloric acid in the gastric fluid). Nature of the data set: Inhibition of gastric fluid secretion (liberation of acid), pylorus ligature, method of Shay et al. The class given is in vivo, male Crl:COBS (WI) BR Albino rats. Conditions: Rat, i.d., 4 hours after pylorus ligature. The procedure:
The inhibiting activity on the gastric secretion was tested in male Crl:COBS (WI) BR Albino rats having a weight of 100 to 125 gm, according to the method of Shay et al., Gastroenterology 26, 906 (1954). The rats were fasted for 24 hours and then anesthetized with ether. The […] was opened, and the pylorus was tied up. […] The control animals received the same volume of the vehicle (0.2% methyl cellulose solution). After 4 hours the animals were killed by dislocating the neck vertebra, the stomachs were removed, opened along the great curvature and the gastric fluid collected. The free and total hydrochloric acid in the gastric fluid was measured by titration with N/10 sodium hydroxide solution. The results were determined in percent from the data received from the treated and untreated animals. The ED50 values were calculated by linear regression analysis of the probits according to the method described by D. J. Finney, Probit Analysis, Cambridge University Press, 1971.

The subject of the next data set is stomach ulcers. Nature of the data set: Inhibiting effect on the formation of stomach ulcers (acetyl salicylic acid and close-meshed wire cage), method of P. A. Brown. The class given is in vivo, female Crl:COBS-CD(SD)Br rats. The conditions noted are these: po, 0.5 h; Rat, p.o., acetyl salicylic acid 30 min after compound, then wire cage; read-out: Ulcer Inhibition ED50. The procedure:
The inhibiting effect on the formation of stomach ulcers was tested in female Crl:COBS-CD(SD)Br rats having a weight of 130 to 160 gm, according to the method of P. A. Brown, European J. Pharmacol. 51, 275 (1978). The animals were fasted for 24 hours, and the compounds were suspended in a 0.2% methyl cellulose solution and administered to the animals using an esophageal tube. After 30 minutes the animals received acetyl salicylic acid perorally at a dose of 8 mg/kg, and after another 30 minutes the animals were placed at room temperature into a close-meshed wire cage. After one hour the animals were killed by dislocating the neck vertebra, the stomach was removed, opened by cutting along the great curvature, the inner side was outwardly spread out on a test tube, and the presence of stomach ulcers was recorded. The activity of the compounds was determined by counting the numbers of stomachs which were free of ulcers. The ED50 was calculated according to the method described by J. T. Litchfield and F. Wilcoxon, J. Pharmac. Exp. Therap. 96, 99 (1949).

As to `Cl.O=C1Nc2ccccc2N(C(=O)CCN2CCCC2)c2ccccc21` [A, 5,10-dihydro-5-(3-pyrrolidino-propionyl)-11H-dibenzo[b,e][1,4]diazepin-11-one hydrochloride], in the data set “Acute toxicity”, the median lethal dose (LD50) was 609 mg/kg. For the same compound, the values for the ED50 (in data set [1]; in data set [2]; with stomach ulcers) were 3.61 mg/kg, 0.2 mg/kg and 1.27 mg/kg, respectively.

The compound `CN1C(=O)c2ccccc2N(C(=O)CCN2CCCC2)c2ccccc21` [B, 5,10-dihydro-10-methyl-5-(3-pyrrolidino-propionyl)-11H-dibenzo[b,e,][1,4]diazepin-11-one hydrochloride] registered an LD50 in “Acute toxicity” of 574 mg/kg. For the same compound, the ED50 in data set [2] came out at 0.73 mg/kg; in the data set on stomach ulcers, 2.05 mg/kg.

In the data set “Acute toxicity”, `Cl.O=C1Nc2ccccc2N(C(=O)CCN2CCCCC2)c2ccccc21` [C, 5,10-dihydro-5-(3-piperidino-propionyl)-11H-dibenzo[b,e][1,4]diazepin-11-one hydrochloride] showed an LD50 of 813 mg/kg. Moreover, the ED50 in data set [1] stood at 3.84 mg/kg; in data set [2], 1.6 mg/kg; in the data set with stomach ulcers, 2.1 mg/kg.

With `O=C1Nc2ccccc2N(C(=O)CN2CCCC2)c2ccccc21` [D, 5,10-dihydro-5-(pyrrolidino-acetyl)-11H-dibenzo[b,e][1,4]diazepin-11-one], the LD50 in “Acute toxicity” was found to be 860 mg/kg. For the same compound, the ED50 in data set [1] was found to be 9.91 mg/kg; in data set [2], 8.15 mg/kg; in the data set on stomach ulcers it was 10.2 mg/kg.

For the compound `CN1C(=O)c2ccccc2N(C(=O)CN2CCCC2)c2ccccc21` [E, 5,10-dihydro-10-methyl-5-(pyrrolidino-acetyl)-11H-dibenzo[b,e,][1,4]diazepin-11-one hydrochloride], the LD50 in the data set “Acute toxicity” came to 816 mg/kg. The ED50 was found to be 9.84 mg/kg in data set [1], 18.1 mg/kg in data set [2] and 8.4 mg/kg in the data set with stomach ulcers.

For the compound `O=C1Nc2ccccc2N(C(=O)CN2CCCCC2)c2ccccc21` [F, 5,10-dihydro-5-(piperidino-acetyl)-11H-dibenzo[b,e,][1,4]diazepin-11-one], in “Acute toxicity”, the LD50 stood at 600 mg/kg. Further, the results for the ED50 (in data set [1]; in data set [2]; in the data set with stomach ulcers) were 5.82 mg/kg, 6.17 mg/kg and 10.4 mg/kg, respectively.

What is called LD50 is the dose expected to kill half of the subjects tested. High values mean a less toxic substance, low ones a more toxic substance. As usually defined, the ED50 is the midpoint of the dose-response relation.
